The test has as its target T1, Human HPK1, catalytic domain (Homo sapiens, UniProt Q92918).
T1 sequence (Q92918 1-346): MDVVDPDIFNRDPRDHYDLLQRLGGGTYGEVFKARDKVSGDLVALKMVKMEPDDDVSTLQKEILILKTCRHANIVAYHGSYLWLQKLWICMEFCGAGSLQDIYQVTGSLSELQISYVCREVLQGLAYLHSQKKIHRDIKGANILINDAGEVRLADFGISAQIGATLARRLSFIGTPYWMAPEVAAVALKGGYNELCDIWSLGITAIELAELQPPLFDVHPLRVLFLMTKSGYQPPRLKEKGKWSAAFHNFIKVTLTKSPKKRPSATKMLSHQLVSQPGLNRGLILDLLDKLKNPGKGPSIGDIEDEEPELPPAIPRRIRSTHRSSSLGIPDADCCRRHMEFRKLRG
Description: HPK1-SLP76 TR-FRET Assay. Particulars: 75 pM HPK1, ATP 10 uM, SLP76 10 nM, 30 min pre-incubation, 60 min reaction. Type of test: biochemical. A general note: Time-resolved FRET reads energy transfer from a long-lived donor to a nearby acceptor.
Regarding `Cc1c(-c2c(F)c(N)c3cnc(Nc4ccc(CS(=O)(=O)C(C)C)cc4)nc3c2Cl)cnc2c1NCCO2` [Compound 2-133, (+ and −)-8-chloro-6-fluoro-7-(8-methyl-2,3-dihydro-1H-pyrido[2,3-b][1,4]oxazin-7-yl)-N~2~- (4-{[(propan-2-yl)sulfonyl]methyl}phenyl) quinazoline-2,5-diamine], the concentration for half-maximal inhibition (IC50) (in general, the point on the concentration scale where inhibition reaches its midpoint) was found to be 0.405 nM.

For `CCS(=O)(=O)Cc1ccc(Nc2ncc3c(N)c(F)c(-c4cnc5c(c4C)NCCO5)c(Cl)c3n2)cc1` [Compound 2-134], the concentration for half-maximal inhibition (IC50) worked out at 57.7 nM.

The molecule `Cc1c(-c2c(F)c(N)c3cnc(Nc4ccc(CS(C)(=O)=O)cc4F)nc3c2Cl)cnc2c1NCCO2` [Compound 2-135, 8-chloro-6-fluoro-N2-(2-fluoro-4-((methylsulfonyl)methyl)phenyl)-7-(8-methyl-2,3-dihydro-1H-pyrido[2,3-b][1,4]oxazin-7-yl)quinazoline-2,5-diamine] came in with an IC50 of 72.5 nM.

On to `Cc1c(-c2cc3nc(Nc4ccc(CS(=O)(=O)C5CC5)cc4)ncc3c(N)c2F)cnc2c1NCCO2` [Compound 2-136], for which half-maximal inhibition (IC50) was put at 0.101 nM.

In turn, `Cc1c(-c2c(F)c(N)c3cnc(Nc4ccc(CS(=O)(=O)C5CC5)cc4)nc3c2Cl)cnc2c1NCCO2` [Compound 2-137, 8-chloro-N2-(4-((cyclopropylsulfonyl)methyl)phenyl)-6-fluoro-7-(8-methyl-2,3-dihydro-1H-pyrido[2,3-b][1,4]oxazin-7-yl)quinazoline-2,5-diamine] returned a half-inhibitory concentration (IC50) of 100 nM.

Molecule `Cc1c(-c2cc3nc(Nc4ccc5c(c4)CCS(=O)(=O)C5)ncc3c(N)c2F)cnc2c1NCCO2` [Compound 2-138, 6-{[5-amino-6-fluoro-7-(8-methyl-2,3-dihydro-1H-pyrido[2,3-b][1,4]oxazin-7-yl)quinazolin-2-yl]amino}-3,4-dihydro-2-benzothiopyran-2,2(1H)-dione] yielded a half-maximal inhibitory concentration (IC50) of 0.068 nM.

The molecule `CN1CCc2ccc(Nc3ncc4c(N)c(F)c(-c5cncc6[nH]ccc56)cc4n3)cc2C1` [Compound 2-139, 6-fluoro-N~2~-(2-methyl-1,2,3,4-tetrahydroisoquinolin-7-yl)-7-(1H-pyrrolo[2,3-c]pyridin-4-yl)quinazoline-2,5-diamine] yielded a 50% inhibitory concentration (IC50) of 0.0422 nM.

`CCS(=O)(=O)Cc1ccc(Nc2ncc3c(N)c(F)c(-c4cnc5c(c4C)NCCO5)c(Cl)c3n2)cc1` [Compound 2-140, 8-chloro-N~2~-{4-[(ethylsulfonyl)methyl]phenyl}-6-fluoro-7-(8-methyl-2,3-dihydro-1H-pyrido[2,3-b][1,4]oxazin-7-yl)quinazoline-2,5-diamine] yielded an IC50 of 0.121 nM.

In the case of `Cc1c(-c2cc3nc(Nc4cc5c(cn4)CCN(C)C5)ncc3c(N)c2F)cnc2c1NCCO2` [Compound 2-142, 6-fluoro-7-(8-methyl-2,3-dihydro-1H-pyrido[2,3-b][1,4]oxazin-7-yl)-N~2~- (6-methyl-5,6,7,8-tetrahydro-2,6-naphthyridin-3-yl)quinazoline-2,5-diamine], inhibition was half-maximal at 1.23 nM (IC50).

Molecule `CCS(=O)(=O)Cc1ccc(Nc2ncc3c(N)c(F)c(-c4cnc5c(c4C)NCCO5)cc3n2)c(F)c1` [Compound 2-143, N~2~-{4-[(ethylsulfonyl)methyl]-2-fluorophenyl}-6-fluoro-7-(8-methyl-2,3-dihydro-1H-pyrido[2,3-b][1,4]oxazin-7-yl)quinazoline-2,5-diamine] gave a half-inhibitory concentration (IC50) of 0.0888 nM.

For `CCS(=O)(=O)Cc1ccc(Nc2ncc3c(N)c(F)c(-c4cnc5c(c4C)NCC(C)(C)O5)cc3n2)c(F)c1` [Compound 2-144, N~2~-{4-[(ethylsulfonyl)methyl]-2-fluorophenyl}-6-fluoro-7-(3,3,8-trimethyl-2,3-dihydro-1H-pyrido[2,3-b][1,4]oxazin-7-yl)quinazoline-2,5-diamine], the half-maximal inhibitory concentration (IC50) stood at 0.232 nM.

Molecule `Cc1c(-c2cc3nc(Nc4ccc(C5(S(C)(=O)=O)CC5)cc4)ncc3c(N)c2F)cnc2c1NCCO2` [Compound 2-148, 6-fluoro-N~2~-{4-[1-(methanesulfonyl)cyclo-propyl]phenyl}-7-(8-methyl-2,3-dihydro-1H-pyrido[2,3-b][1,4]oxazin-7-yl)quinazoline-2,5-diamine] gave an IC50 of 0.0831 nM.

(Values after patent US20230399341A1, “7-PHENYL SUBSTITUTED 2-AMINOQUINAZOLINE INHIBITORS OF HPK1” (MERCK SHARP & DOHME LLC, priority 2020, published 2023).)
